# How the values were obtained:
# [1] = tested on: canarygrass; experiment: Test D preemergence; assay type: in vivo, Phalaris minor; details: Preemergence, scale 0 to 100
# How it was run: (§1)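 Preemergence: seeds sown in silt loam and sprayed with compounds in a non-phytotoxic solvent with surfactant; postemergence: plants at 2 to 18 cm (1- to 4-leaf stage) in peat-based medium treated likewise. After 14 to 21 days in controlled growth conditions, injury rated visually versus controls on 0 (no effect) to 100 (complete control) scale.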
# [2] = tested on: galium; experiment: Test D preemergence; assay type: in vivo, Galium aparine; details: Preemergence, scale 0 to 100
# How it was run: as §1
# [3] = tested on: field poppy; experiment: Test D preemergence; assay type: in vivo, Papaver rhoeas; details: Preemergence, scale 0 to 100
# How it was run: as §1
# [4] = tested on: ryegrass, Italian; experiment: Test D preemergence; assay type: in vivo, Lolium multiflorum; details: Preemergence, scale 0 to 100
# How it was run: as §1
# [5] = tested on: speedwell; experiment: Test D preemergence; assay type: in vivo, Veronica persica; details: Preemergence, scale 0 to 100
# How it was run: as §1
# [6] = tested on: buckwheat, wild; experiment: Test D preemergence; assay type: in vivo, Polygonum convolvulus; details: Preemergence, scale 0 to 100
# How it was run: as §1
# [7] = tested on: windgrass; experiment: Test D preemergence; assay type: in vivo, Apera spica-venti; details: Preemergence, scale 0 to 100
# How it was run: as §1
# [8] = tested on: field poppy; experiment: Test D postemergence; assay type: in vivo, Papaver rhoeas; details: scale 0 to 100
# How it was run: as §1
# [9] = tested on: field violet; experiment: Test D postemergence; assay type: in vivo, Viola arvensis; details: scale 0 to 100
# How it was run: as §1
# [10] = tested on: oilseed rape; experiment: Test D postemergence; assay type: in vivo, Brassica napus; details: scale 0 to 100
# How it was run: as §1
# [11] = tested on: chamomile; experiment: Test D postemergence; assay type: in vivo, Matricaria inodora; details: scale 0 to 100
# How it was run: as §1
# [12] = tested on: barley, spring; experiment: Test D postemergence; assay type: in vivo, Hordeum vulgare; details: scale 0 to 100
# How it was run: as §1
# [13] = tested on: barley, winter; experiment: Test D postemergence; assay type: in vivo, Hordeum vulgare; details: scale 0 to 100
# How it was run: as §1
# [14] = tested on: wheat, spring; experiment: Test D postemergence; assay type: in vivo, Triticum aestivum; details: scale 0 to 100
# How it was run: as §1
# [15] = tested on: wheat, winter; experiment: Test D postemergence; assay type: in vivo, Triticum aestivum; details: scale 0 to 100
# How it was run: as §1
# [16] = tested on: radish, wild; experiment: Test D postemergence; assay type: in vivo, Raphanus raphanistrum; details: scale 0 to 100
# How it was run: as §1
# [17] = tested on: windgrass; experiment: Test D postemergence; assay type: in vivo, Apera spica-venti; details: scale 0 to 100
# How it was run: as §1
compound,measurement,setting,value
CCCc1cc(C(=O)NC2CC2)nn1Cc1cc(C(F)(F)F)nn1C [Compound 202],"Plant response rating, Canarygrass",[1]; 31 g ai/ha,10
same,"Plant response rating, Canarygrass",[1]; 62 g ai/ha,40
same,"Plant response rating, Canarygrass",[1]; 125 g ai/ha,75
same,"Plant response rating, Canarygrass",[1]; 250 g ai/ha,85
same,"Plant response rating, Galium",[2]; 62 g ai/ha,35
same,"Plant response rating, Galium",[2]; 125 g ai/ha,70
same,"Plant response rating, Galium",[2]; 250 g ai/ha,100
same,"Plant response rating, Field Poppy",[3]; 62 g ai/ha,100
same,"Plant response rating, Field Poppy",[3]; 125 g ai/ha,100
same,"Plant response rating, Field Poppy",[3]; 250 g ai/ha,100
same,"Plant response rating, Ryegrass, Italian",[4]; 62 g ai/ha,0
same,"Plant response rating, Ryegrass, Italian",[4]; 125 g ai/ha,40
same,"Plant response rating, Ryegrass, Italian",[4]; 250 g ai/ha,80
same,"Plant response rating, Speedwell",[5]; 62 g ai/ha,100
same,"Plant response rating, Speedwell",[5]; 125 g ai/ha,100
same,"Plant response rating, Speedwell",[5]; 250 g ai/ha,100
same,"Plant response rating, Buckwheat, Wild",[6]; 31 g ai/ha,35
same,"Plant response rating, Buckwheat, Wild",[6]; 62 g ai/ha,60
same,"Plant response rating, Buckwheat, Wild",[6]; 125 g ai/ha,100
same,"Plant response rating, Buckwheat, Wild",[6]; 250 g ai/ha,100
same,"Plant response rating, Windgrass",[7]; 62 g ai/ha,55
same,"Plant response rating, Windgrass",[7]; 125 g ai/ha,75
same,"Plant response rating, Windgrass",[7]; 250 g ai/ha,100
same,Field Poppy plant response rating,"[8]; Postemergence, 31 g ai/ha",50
same,Field Poppy plant response rating,"[8]; Postemergence, 125 g ai/ha",50
same,Field Poppy plant response rating,"[8]; Postemergence, 250 g ai/ha",75
same,Field Poppy plant response rating,"[8]; postemergence, 62 g ai/ha",50
same,Field Violet plant response rating,"[9]; Postemergence, 31 g ai/ha",25
same,Field Violet plant response rating,"[9]; Postemergence, 125 g ai/ha",45
same,Field Violet plant response rating,"[9]; Postemergence, 250 g ai/ha",50
same,Field Violet plant response rating,"[9]; postemergence, 62 g ai/ha",25
same,Oilseed Rape plant response rating,"[10]; Postemergence, 31 g ai/ha",40
same,Oilseed Rape plant response rating,"[10]; Postemergence, 125 g ai/ha",50
same,Oilseed Rape plant response rating,"[10]; Postemergence, 250 g ai/ha",60
same,Oilseed Rape plant response rating,"[10]; postemergence, 62 g ai/ha",40
same,Chamomile plant response rating,"[11]; Postemergence, 31 g ai/ha",55
same,Chamomile plant response rating,"[11]; Postemergence, 125 g ai/ha",60
same,Chamomile plant response rating,"[11]; Postemergence, 250 g ai/ha",65
same,Chamomile plant response rating,"[11]; postemergence, 62 g ai/ha",55
same,"Barley, Spring plant response rating","[12]; Postemergence, 31 g ai/ha",20
same,"Barley, Spring plant response rating","[12]; Postemergence, 125 g ai/ha",25
same,"Barley, Spring plant response rating","[12]; Postemergence, 250 g ai/ha",30
same,"Barley, Spring plant response rating","[12]; postemergence, 62 g ai/ha",20
same,"Barley, Winter plant response rating","[13]; Postemergence, 31 g ai/ha",15
same,"Barley, Winter plant response rating","[13]; Postemergence, 125 g ai/ha",15
same,"Barley, Winter plant response rating","[13]; Postemergence, 250 g ai/ha",25
same,"Barley, Winter plant response rating","[13]; postemergence, 62 g ai/ha",15
same,"Wheat, Spring plant response rating","[14]; Postemergence, 31 g ai/ha",10
same,"Wheat, Spring plant response rating","[14]; Postemergence, 125 g ai/ha",10
same,"Wheat, Spring plant response rating","[14]; Postemergence, 250 g ai/ha",20
same,"Wheat, Spring plant response rating","[14]; postemergence, 62 g ai/ha",10
same,"Wheat, Winter plant response rating","[15]; Postemergence, 31 g ai/ha",15
same,"Wheat, Winter plant response rating","[15]; Postemergence, 125 g ai/ha",20
same,"Wheat, Winter plant response rating","[15]; Postemergence, 250 g ai/ha",25
same,"Wheat, Winter plant response rating","[15]; postemergence, 62 g ai/ha",15
same,"Radish, Wild plant response rating","[16]; Postemergence, 31 g ai/ha",55
same,"Radish, Wild plant response rating","[16]; Postemergence, 125 g ai/ha",65
same,"Radish, Wild plant response rating","[16]; Postemergence, 250 g ai/ha",75
same,"Radish, Wild plant response rating","[16]; postemergence, 62 g ai/ha",55
same,Windgrass plant response rating,"[17]; Postemergence, 31 g ai/ha",15
same,Windgrass plant response rating,"[17]; Postemergence, 125 g ai/ha",25
same,Windgrass plant response rating,"[17]; Postemergence, 250 g ai/ha",35
same,Windgrass plant response rating,"[17]; postemergence, 62 g ai/ha",15
CCc1cc(C(=O)NCC(F)(F)F)nn1Cc1ccnc(SC(F)(F)F)c1 [Compound 214],"Plant response rating, Canarygrass",[1]; 31 g ai/ha,40
same,"Plant response rating, Canarygrass",[1]; 62 g ai/ha,65
same,"Plant response rating, Canarygrass",[1]; 125 g ai/ha,100
same,"Plant response rating, Canarygrass",[1]; 250 g ai/ha,100
same,"Plant response rating, Galium",[2]; 62 g ai/ha,85
same,"Plant response rating, Galium",[2]; 125 g ai/ha,100
same,"Plant response rating, Galium",[2]; 250 g ai/ha,100
same,"Plant response rating, Field Poppy",[3]; 62 g ai/ha,100
same,"Plant response rating, Field Poppy",[3]; 125 g ai/ha,100
same,"Plant response rating, Field Poppy",[3]; 250 g ai/ha,100
same,"Plant response rating, Ryegrass, Italian",[4]; 62 g ai/ha,55
same,"Plant response rating, Ryegrass, Italian",[4]; 125 g ai/ha,70
same,"Plant response rating, Ryegrass, Italian",[4]; 250 g ai/ha,90
same,"Plant response rating, Speedwell",[5]; 62 g ai/ha,100
same,"Plant response rating, Speedwell",[5]; 125 g ai/ha,100
same,"Plant response rating, Speedwell",[5]; 250 g ai/ha,100
same,"Plant response rating, Buckwheat, Wild",[6]; 31 g ai/ha,35
same,"Plant response rating, Buckwheat, Wild",[6]; 62 g ai/ha,95
same,"Plant response rating, Buckwheat, Wild",[6]; 125 g ai/ha,90
same,"Plant response rating, Buckwheat, Wild",[6]; 250 g ai/ha,100
same,"Plant response rating, Windgrass",[7]; 62 g ai/ha,85
same,"Plant response rating, Windgrass",[7]; 125 g ai/ha,90
same,"Plant response rating, Windgrass",[7]; 250 g ai/ha,100
same,Field Poppy plant response rating,"[8]; Postemergence, 31 g ai/ha",70
same,Field Poppy plant response rating,"[8]; Postemergence, 125 g ai/ha",70
same,Field Poppy plant response rating,"[8]; Postemergence, 250 g ai/ha",80
same,Field Poppy plant response rating,"[8]; postemergence, 62 g ai/ha",70
same,Field Violet plant response rating,"[9]; Postemergence, 31 g ai/ha",100
same,Field Violet plant response rating,"[9]; Postemergence, 125 g ai/ha",100
same,Field Violet plant response rating,"[9]; Postemergence, 250 g ai/ha",100
same,Field Violet plant response rating,"[9]; postemergence, 62 g ai/ha",100
same,Oilseed Rape plant response rating,"[10]; Postemergence, 31 g ai/ha",65
same,Oilseed Rape plant response rating,"[10]; Postemergence, 125 g ai/ha",75
same,Oilseed Rape plant response rating,"[10]; Postemergence, 250 g ai/ha",100
same,Oilseed Rape plant response rating,"[10]; postemergence, 62 g ai/ha",65
same,Chamomile plant response rating,"[11]; Postemergence, 31 g ai/ha",40
same,Chamomile plant response rating,"[11]; Postemergence, 125 g ai/ha",60
same,Chamomile plant response rating,"[11]; Postemergence, 250 g ai/ha",70
same,Chamomile plant response rating,"[11]; postemergence, 62 g ai/ha",40
same,"Barley, Spring plant response rating","[12]; Postemergence, 31 g ai/ha",15
same,"Barley, Spring plant response rating","[12]; Postemergence, 125 g ai/ha",20
same,"Barley, Spring plant response rating","[12]; Postemergence, 250 g ai/ha",40
same,"Barley, Spring plant response rating","[12]; postemergence, 62 g ai/ha",15
same,"Barley, Winter plant response rating","[13]; Postemergence, 31 g ai/ha",20
same,"Barley, Winter plant response rating","[13]; Postemergence, 125 g ai/ha",30
same,"Barley, Winter plant response rating","[13]; Postemergence, 250 g ai/ha",35
same,"Barley, Winter plant response rating","[13]; postemergence, 62 g ai/ha",20
same,"Wheat, Spring plant response rating","[14]; Postemergence, 31 g ai/ha",15
same,"Wheat, Spring plant response rating","[14]; Postemergence, 125 g ai/ha",15
same,"Wheat, Spring plant response rating","[14]; Postemergence, 250 g ai/ha",20
same,"Wheat, Spring plant response rating","[14]; postemergence, 62 g ai/ha",15
same,"Wheat, Winter plant response rating","[15]; Postemergence, 31 g ai/ha",15
same,"Wheat, Winter plant response rating","[15]; Postemergence, 125 g ai/ha",20
same,"Wheat, Winter plant response rating","[15]; Postemergence, 250 g ai/ha",40
same,"Wheat, Winter plant response rating","[15]; postemergence, 62 g ai/ha",15
same,"Radish, Wild plant response rating","[16]; Postemergence, 31 g ai/ha",65
same,"Radish, Wild plant response rating","[16]; Postemergence, 125 g ai/ha",70
same,"Radish, Wild plant response rating","[16]; Postemergence, 250 g ai/ha",100
same,"Radish, Wild plant response rating","[16]; postemergence, 62 g ai/ha",65
same,Windgrass plant response rating,"[17]; Postemergence, 31 g ai/ha",20
same,Windgrass plant response rating,"[17]; Postemergence, 125 g ai/ha",30
same,Windgrass plant response rating,"[17]; Postemergence, 250 g ai/ha",40
same,Windgrass plant response rating,"[17]; postemergence, 62 g ai/ha",20

# — patent US20150105252A1, “SUBSTITUTED PYRAZOLES AS HERBICIDES” (E I DU PONT DE NEMOURS AND COMPANY, priority 2013, published 2015)
